Active and inactive are the calls of the source.
How the values were obtained:
T-cell = assay: loss of vesicle association with mouse CD8+ T cells – mouse 2C CD8+ T cells, flow cytometry, dose response (AID 485284); type: functional
CAAX prenyl protease 2 = molecular target: T1, CAAX prenyl protease 2 (Saccharomyces cerevisiae S288c, UniProt Q03530); type: biochemical
T1 sequence (Q03530 whole entry): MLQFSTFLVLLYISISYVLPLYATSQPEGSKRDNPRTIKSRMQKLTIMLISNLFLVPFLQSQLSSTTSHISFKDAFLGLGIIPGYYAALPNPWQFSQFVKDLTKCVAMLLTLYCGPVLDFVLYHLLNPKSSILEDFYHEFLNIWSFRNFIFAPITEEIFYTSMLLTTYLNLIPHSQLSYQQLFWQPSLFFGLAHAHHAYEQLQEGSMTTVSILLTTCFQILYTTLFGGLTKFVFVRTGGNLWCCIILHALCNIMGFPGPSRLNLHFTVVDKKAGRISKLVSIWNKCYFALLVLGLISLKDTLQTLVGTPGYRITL

[1] = molecular target: DNA dC->dU-editing enzyme APOBEC-3A (Homo sapiens, UniProt P31941); assay: Dose Response confirmation of small molecule APOBEC3A DNA Deaminase Inhibitors via a fluorescence-based single-stranded DNA deaminase assay. [Related pubchem assays (depositor defined):AID493011, AID493024]; type: functional
DNA dC->dU-editing enzyme APOBEC-3A, sequence (P31941 whole entry): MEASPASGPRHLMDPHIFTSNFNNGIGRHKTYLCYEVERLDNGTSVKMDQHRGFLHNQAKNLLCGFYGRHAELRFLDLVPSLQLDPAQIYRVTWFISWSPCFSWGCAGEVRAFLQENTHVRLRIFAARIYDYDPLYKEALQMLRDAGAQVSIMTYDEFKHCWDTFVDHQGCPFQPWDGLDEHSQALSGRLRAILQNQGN

[2] = molecular target: T2, DNA dC->dU-editing enzyme APOBEC-3G (Homo sapiens, UniProt Q9HC16); type: functional
T2 sequence (Q9HC16 whole entry): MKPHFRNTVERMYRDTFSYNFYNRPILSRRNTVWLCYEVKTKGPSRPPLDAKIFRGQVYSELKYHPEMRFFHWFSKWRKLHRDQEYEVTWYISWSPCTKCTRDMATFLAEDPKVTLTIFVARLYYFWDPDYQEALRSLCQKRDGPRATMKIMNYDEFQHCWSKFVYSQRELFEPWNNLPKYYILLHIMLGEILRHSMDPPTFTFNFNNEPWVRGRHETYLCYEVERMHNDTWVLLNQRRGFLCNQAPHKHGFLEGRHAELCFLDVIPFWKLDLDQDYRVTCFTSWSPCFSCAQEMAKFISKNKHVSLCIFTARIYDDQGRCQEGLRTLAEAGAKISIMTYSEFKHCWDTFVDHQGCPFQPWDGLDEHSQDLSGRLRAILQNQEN

Caspase-6 = molecular target: T3, Caspase-6 (Homo sapiens, UniProt P55212); assay: inhibition of CASP6 peptide cleavage – biochemical, VEID-R110 fluorescence, cherry-pick, dose response (AID 720632)
T3 sequence (P55212 whole entry): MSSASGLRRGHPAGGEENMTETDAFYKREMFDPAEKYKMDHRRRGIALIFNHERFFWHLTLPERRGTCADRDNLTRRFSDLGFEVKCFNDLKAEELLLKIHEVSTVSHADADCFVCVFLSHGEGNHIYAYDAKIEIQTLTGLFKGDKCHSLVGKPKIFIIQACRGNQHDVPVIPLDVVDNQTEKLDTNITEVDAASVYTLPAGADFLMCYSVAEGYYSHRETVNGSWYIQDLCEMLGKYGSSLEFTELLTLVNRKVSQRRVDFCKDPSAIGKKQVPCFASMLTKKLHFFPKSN

[3] = molecular target: Alkaline phosphatase, placental type (Homo sapiens, UniProt P05187); assay: human placental alkaline phosphatase inhibition – biochemical, luminescence, confirmation (AID 1512); type: functional
Alkaline phosphatase, placental type, sequence (P05187 whole entry): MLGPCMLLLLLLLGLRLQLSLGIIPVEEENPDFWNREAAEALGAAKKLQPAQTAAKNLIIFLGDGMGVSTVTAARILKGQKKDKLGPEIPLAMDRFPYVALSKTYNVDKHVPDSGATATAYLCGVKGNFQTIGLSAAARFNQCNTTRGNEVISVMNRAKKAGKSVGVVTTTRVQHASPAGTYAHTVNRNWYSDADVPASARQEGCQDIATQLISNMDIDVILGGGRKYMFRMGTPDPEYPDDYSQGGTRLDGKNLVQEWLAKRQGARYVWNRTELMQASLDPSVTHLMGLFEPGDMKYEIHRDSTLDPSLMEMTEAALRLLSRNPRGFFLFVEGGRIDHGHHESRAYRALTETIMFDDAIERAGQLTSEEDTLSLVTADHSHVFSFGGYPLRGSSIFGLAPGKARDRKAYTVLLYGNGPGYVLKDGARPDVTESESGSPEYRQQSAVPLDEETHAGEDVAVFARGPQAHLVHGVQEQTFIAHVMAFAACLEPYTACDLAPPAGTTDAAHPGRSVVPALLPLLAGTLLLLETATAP

[4] = molecular target: T4, Alkaline phosphatase, tissue-nonspecific isozyme (Homo sapiens, UniProt P05186); assay: potency against alkaline phosphatase TNAP – biochemical, luminescent, dose response, SAR follow-up (AID 1056)
T4 sequence (P05186 whole entry): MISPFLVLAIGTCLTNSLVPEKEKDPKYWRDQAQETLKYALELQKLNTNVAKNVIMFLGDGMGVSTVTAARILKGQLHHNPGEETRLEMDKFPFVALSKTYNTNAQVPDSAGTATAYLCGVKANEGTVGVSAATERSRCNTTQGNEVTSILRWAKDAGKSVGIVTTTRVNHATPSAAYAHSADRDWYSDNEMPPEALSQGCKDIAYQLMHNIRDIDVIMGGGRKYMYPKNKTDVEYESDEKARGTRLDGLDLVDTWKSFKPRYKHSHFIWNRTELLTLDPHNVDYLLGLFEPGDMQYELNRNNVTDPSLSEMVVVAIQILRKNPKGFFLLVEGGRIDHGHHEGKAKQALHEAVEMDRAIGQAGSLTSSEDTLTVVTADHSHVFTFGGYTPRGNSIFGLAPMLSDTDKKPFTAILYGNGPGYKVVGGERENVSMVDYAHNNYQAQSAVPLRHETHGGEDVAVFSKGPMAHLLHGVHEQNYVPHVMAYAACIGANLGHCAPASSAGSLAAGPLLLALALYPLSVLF

HEK293 [5] = assay: inhibition of NOD1-driven NF-kB reporter – cell-based, luminescence, uHTS, primary screen (AID 1578); type: functional; details: Homo sapiens
HEK293 [6] = assay: cells; type: functional, cell-based; details: Homo sapiens
HEK293 [7] = assay: cells; type: functional, cell-based; details: Homo sapiens; remark: listed apart in the source
HEK293 [8] = assay: NOD2 signaling inhibitors in MDP-stimulated cells, cell-based, uHTS, luminescence (AID 2001); type: functional; details: Homo sapiens
Tumor necrosis factor = Tumor necrosis factor (Homo sapiens, UniProt P01375); assay: analog potency on TNFa NF-kB signaling – cell-based, revised, SAR follow-up (AID 2337); type: functional
Tumor necrosis factor, sequence (P01375 whole entry, the tested form may be a part): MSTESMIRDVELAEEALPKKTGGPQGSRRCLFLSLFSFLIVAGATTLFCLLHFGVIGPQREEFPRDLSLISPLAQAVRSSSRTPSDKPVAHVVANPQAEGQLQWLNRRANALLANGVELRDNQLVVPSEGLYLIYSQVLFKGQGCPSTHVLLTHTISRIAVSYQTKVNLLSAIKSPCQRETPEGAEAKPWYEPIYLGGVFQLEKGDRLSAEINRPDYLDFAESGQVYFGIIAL

[9] = molecular target: T5, Nucleotide-binding oligomerization domain-containing protein 1 (Homo sapiens, UniProt Q9Y239); assay: blockers of NOD1 pathway activity – revised, SAR follow-up (AID 2333); type: functional
T5 sequence (Q9Y239 whole entry): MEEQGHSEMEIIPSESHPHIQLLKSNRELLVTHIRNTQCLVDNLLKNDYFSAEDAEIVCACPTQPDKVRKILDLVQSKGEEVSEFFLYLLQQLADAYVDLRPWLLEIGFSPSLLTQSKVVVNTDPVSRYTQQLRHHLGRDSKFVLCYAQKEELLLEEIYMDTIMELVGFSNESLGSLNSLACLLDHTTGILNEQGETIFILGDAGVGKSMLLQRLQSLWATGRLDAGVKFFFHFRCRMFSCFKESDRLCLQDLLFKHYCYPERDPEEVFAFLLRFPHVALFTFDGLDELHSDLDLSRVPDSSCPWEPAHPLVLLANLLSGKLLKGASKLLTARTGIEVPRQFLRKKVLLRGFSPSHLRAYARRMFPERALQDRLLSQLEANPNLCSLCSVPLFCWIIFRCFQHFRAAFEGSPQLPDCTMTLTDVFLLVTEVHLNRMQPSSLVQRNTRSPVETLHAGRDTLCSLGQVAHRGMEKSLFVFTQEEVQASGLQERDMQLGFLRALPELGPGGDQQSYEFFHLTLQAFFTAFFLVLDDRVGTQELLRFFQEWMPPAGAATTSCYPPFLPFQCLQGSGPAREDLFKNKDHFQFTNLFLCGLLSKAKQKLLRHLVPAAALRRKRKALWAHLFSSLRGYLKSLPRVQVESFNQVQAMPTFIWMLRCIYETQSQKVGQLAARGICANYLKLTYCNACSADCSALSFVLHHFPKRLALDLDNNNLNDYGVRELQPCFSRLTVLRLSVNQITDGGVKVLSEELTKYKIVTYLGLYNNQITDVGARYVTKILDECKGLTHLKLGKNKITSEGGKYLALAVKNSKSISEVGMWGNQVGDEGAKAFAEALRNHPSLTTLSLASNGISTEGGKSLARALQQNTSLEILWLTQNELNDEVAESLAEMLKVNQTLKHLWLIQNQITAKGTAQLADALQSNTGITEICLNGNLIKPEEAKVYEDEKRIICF

HEK293 [10] = assay: cells; details: Homo sapiens
[11] = molecular target: T2, DNA dC->dU-editing enzyme APOBEC-3G; assay: Dose Response confirmation of small molecule APOBEC3G DNA Deaminase Inhibitors via a fluorescence-based single-stranded DNA deaminase assay. [Related pubchem assays (depositor defined):AID493012, AID493028]; type: functional
[12] = molecular target: Heat shock protein HSP 90-alpha (Homo sapiens, UniProt P07900); type: functional, organism-based
Hexokinase = molecular target: T6, Hexokinase (Trypanosoma brucei, UniProt Q38C41); assay: Confirmation assay for inhibitors of Trypanosoma brucei hexokinase 1-Analogue-first series. [Related pubchem assays (depositor defined):AID1430, AID1632, AID2516, AID2560, AID2579, AID2600, AID449725, AID492951]; type: functional
T6 sequence (Q38C41 whole entry): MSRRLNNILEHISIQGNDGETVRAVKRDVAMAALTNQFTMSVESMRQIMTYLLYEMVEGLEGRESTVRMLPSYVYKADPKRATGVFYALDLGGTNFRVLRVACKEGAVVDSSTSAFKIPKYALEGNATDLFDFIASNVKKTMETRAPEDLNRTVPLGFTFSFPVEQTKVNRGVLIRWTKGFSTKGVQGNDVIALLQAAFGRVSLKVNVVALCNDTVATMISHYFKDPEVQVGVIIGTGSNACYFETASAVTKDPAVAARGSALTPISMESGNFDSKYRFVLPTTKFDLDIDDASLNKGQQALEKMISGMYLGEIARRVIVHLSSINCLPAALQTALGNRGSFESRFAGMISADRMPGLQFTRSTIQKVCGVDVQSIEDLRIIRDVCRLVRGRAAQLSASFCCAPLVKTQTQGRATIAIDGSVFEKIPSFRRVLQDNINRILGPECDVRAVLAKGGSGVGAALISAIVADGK

[13] = molecular target: T7, DNA repair protein RAD52 homolog (Homo sapiens, UniProt P43351); type: functional, biochemical
T7 sequence (P43351 whole entry): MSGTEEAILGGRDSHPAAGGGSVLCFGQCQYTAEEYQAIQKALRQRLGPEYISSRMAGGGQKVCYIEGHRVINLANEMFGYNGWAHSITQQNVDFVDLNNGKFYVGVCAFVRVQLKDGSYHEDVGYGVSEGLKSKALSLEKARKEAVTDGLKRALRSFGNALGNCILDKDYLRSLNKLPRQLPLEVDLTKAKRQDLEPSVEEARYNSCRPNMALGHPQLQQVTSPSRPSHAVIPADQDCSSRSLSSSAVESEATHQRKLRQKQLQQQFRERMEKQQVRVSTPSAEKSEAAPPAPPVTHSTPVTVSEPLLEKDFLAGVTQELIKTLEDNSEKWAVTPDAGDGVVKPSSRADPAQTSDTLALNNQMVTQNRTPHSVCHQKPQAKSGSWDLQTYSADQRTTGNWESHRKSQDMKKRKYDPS

[14] = system: Streptococcus sp. 'group A'; assay: Streptococcus pyogenes SK(-)GAS viability under kanamycin – luminescence, BacTiterGlo, confirmation, counter-screen for streptokinase expression inhibitor project, dose response (AID 1900); type: functional, organism-based
Streptokinase A = molecular target: T8, Streptokinase A (Streptococcus pyogenes serotype M1, UniProt P10520); assay: viability-normalized secreted streptokinase activity reduction – plasminogen activation absorbance, OD405, dose response (AID 1914); type: functional, Streptococcus pyogenes M1 GAS;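 further: secreted streptokinase activity via plasminogen activation per viability signal from cell pellet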
T8 sequence (P10520 whole entry): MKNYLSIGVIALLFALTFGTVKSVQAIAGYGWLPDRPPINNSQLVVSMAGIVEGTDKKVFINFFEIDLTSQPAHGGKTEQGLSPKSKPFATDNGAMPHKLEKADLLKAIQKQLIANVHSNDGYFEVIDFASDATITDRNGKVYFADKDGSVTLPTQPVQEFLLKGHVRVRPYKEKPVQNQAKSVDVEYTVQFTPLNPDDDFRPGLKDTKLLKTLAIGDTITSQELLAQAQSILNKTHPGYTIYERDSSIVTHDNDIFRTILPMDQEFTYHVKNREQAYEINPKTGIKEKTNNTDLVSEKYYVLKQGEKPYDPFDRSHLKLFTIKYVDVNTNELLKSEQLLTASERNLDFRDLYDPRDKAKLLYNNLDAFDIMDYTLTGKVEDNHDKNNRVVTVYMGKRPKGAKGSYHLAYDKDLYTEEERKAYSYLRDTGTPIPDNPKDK

Streptococcus = assay: GAS UMAA2166 growth inhibition – luminescence, BacTiterGlo, counter-screen for streptokinase expression inhibitor project, dose response (AID 1915); type: functional, organism-based;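 further: potency for reduction of bacterial viability or growth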

Cc1ccc(N2CC(C(=O)NC3=NCCS3)CC2=O)cc1 (configuration not stated)
EC50 (T-cell): 22.1 µM (active)

CCOc1ccc(N(Cc2ccc(OC)cc2)C(=O)c2ccco2)cc1
AC50 (CAAX prenyl protease 2): 4.23 µM (active)

O=C(O)c1ccc2c3c(cccc13)C(=O)N(c1ccccc1)C2=O
IC50 [1]: 14 µM (active)
IC50 [2]: 37.5 µM (active)
AC50 (Caspase-6): 11.9 µM (active)

O=C1Nc2ccccc2/C1=C\NCCc1ccc(O)c(O)c1
IC50 [3]: 0.374 µM (active)
IC50 [4]: 2.54 µM (active)

Oc1nc(/C=C/c2ccccc2C(F)(F)F)cc(C(F)(F)F)n1
EC50 (HEK293 [5]): 9.79 µM (active)
IC50 (HEK293 [6]): > 20 µM (inactive)
IC50 (HEK293 [7]): > 20 µM (inactive)
IC50 (HEK293 [8]): 13.3 µM (inactive)
IC50 (Tumor necrosis factor): 11.3 µM (active)
IC50 [9]: 3.82 µM (active)
IC50 (HEK293 [10]): > 20 µM (inactive)

CCCCCC(=O)N(O)C1CC(=O)N(c2ccccc2)C1=O (configuration not stated)
IC50 [11]: 59.7 µM (active)
AC50 [12]: 4.5 µM (active)

CCCCN1C(=O)/C(=N\Nc2ccccc2C(F)(F)F)c2ccccc21
IC50 [3]: 49.7 µM (active)
IC50 [4]: 73.8 µM (active)

Cc1nc2nc(C)n(-c3ccccc3)c2s1
IC50 [1]: 17.7 µM (active)
IC50 [2]: 6.72 µM (active)

COc1ccc(C(=O)Nc2cnccc2C(=O)O)cc1
IC50 (Hexokinase): > 25 µM (inactive)

COCCCN1CCc2nc(S)nc(O)c2C1
EC50 (T-cell): 0.594 µM (active)

COc1ccc(C(=O)N(C)c2cc(Cl)ccc2C(=O)O)cc1
IC50 (Hexokinase): > 25 µM (inactive)

CCCCN=C(S)NNC(=O)c1nn(C)c(C)c1Cl
IC50 [3]: > 100 µM (inactive)

CCN(CC)CCn1c2ccccc2c2nnc(S)nc21
IC50 [11]: 19.5 µM (active)
AC50 [13]: 5.41 µM (active)

CCN1C(NCCCOC(C)C)=N[C@@H](c2ccccc2)[C@H](C(=O)OC)[C@H]1C
IC50 [1]: 3.99 µM (active)
IC50 [2]: 7.19 µM (active)

Cc1cc(Cl)c2oc(C(=O)N3CCN(C(=O)c4ccco4)CC3)c(C)c2c1
EC50 [14]: 3.4 µM (active)
EC50 (Streptokinase A): > 150 µM (not active)
EC50 (Streptococcus): 24.7 µM (active)
AC50 (CAAX prenyl protease 2): 21.7 µM (active)

Reference: ChEMBL document CHEMBL1201862, “PubChem BioAssay data set” (2004)
